Holding throughout (type): biochemical
For assay [1], the target named is T1, human macrophage elastase (HME/hMMP-12) (Homo sapiens, UniProt P39900).
T1 construct: purchased R&D Systems 917-MP
Put plainly: In vitro HME inhibition test (standard or high-sensitivity). As to conditions: in some cases mean values, rounded to two significant figures. The method in brief: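 Autoactivated HME (0.5 nM; high-sensitivity format 0.05 nM, ~16 h) with 5 μM quenched Mca-PLGLEEA-Dap(Dnp)-NH2 substrate in HEPES pH 7.4, NaCl, CaCl2, ZnCl2, EDTA, Brij buffer, 2 h at 37° C. Fluorescence at ex 323/em 393 nm; IC50 from signal versus concentration.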

For a further assay, the target named is T2, MMP-14 (Homo sapiens, UniProt P50281).
T2 construct: purchased R&D Systems 918-MP
Put plainly: In vitro MMP-14 inhibition test. The conditions noted are these: human MMP-14. An excerpt: (§1) The MMP-mediated amidolytic cleavage of a suitable peptide substrate leads to an increase in fluorescent light here too. The signal intensity of the fluorescent light is directly proportional to the enzyme activity. The active concentration of a test compound at which half the enzyme is inhibited (50% signal intensity of the fluorescent light) is reported as the IC50 value.
Recombinant MMP-14 (R&D Systems, 918-MP) is enzymatically activated in accordance with the manufacturer's instructions using recombinant furin (R&D Systems, 1503-SE). 1 μl of the test compound to be analysed (as a solution in DMSO, suitable concentrations e.g. 1 nM to 30 μM) is pipetted into 24 μl of activated enzyme (final concentration e.g. 0.5 nM) in reaction buffer (50 mM Tris/HCl pH 7.5, 10 mM CaCl2, 150 mM NaCl, 0.05% Brij®-35) in a white 384-hole microtiter plate (MTP). The enzymatic reaction is started by adding the intramolecularly quenched Mca-Lys-Pro-Leu-Gly-Leu-Dpa(Dnp)-Ala-Arg-NH2 substrate (final concentration e.g. 5 μM; R&D Systems, ES-010), so as to result in a total test volume of 50 μl. The course of the MMP-14 reaction is measured by measuring the fluorescence intensity (excitation 320 nm, emission 410 nm) over a suitable period of time (e.g. over 120 min at a temperature of 32° C.).

The next assay addresses T3, MMP-8 (Homo sapiens, UniProt P22894).
T3 construct: purchased R&D Systems 908-MP
Put plainly: In vitro MMP-8 inhibition test. As to conditions: human MMP-8.
Text: as §1
Recombinant MMP-8 (R&D Systems, 908-MP) is chemically activated in accordance with the manufacturer's instructions using APMA. 1 μl of the test compound to be analysed (as a solution in DMSO, suitable concentrations e.g. 1 nM to 30 μM) is pipetted into 24 μl of activated enzyme (final concentration e.g. 0.5 nM) in reaction buffer (50 mM Tris/HCl pH 7.5, 10 mM CaCl2, 150 mM NaCl, 0.05% Brij®-35) in a white 384-hole microtiter plate (MTP). The enzymatic reaction is started by adding the intramolecularly quenched Mca-Pro-Leu-Gly-Leu-Dpa(Dnp)-Ala-Arg-NH2 substrate (final concentration e.g. 10 μM; R&D Systems, ES-001), so as to result in a total test volume of 50 μl. The course of the MMP-8 reaction is measured by measuring the fluorescence intensity (excitation 320 nm, emission 410 nm) over a suitable period of time (e.g. over 120 min at a temperature of 32° C.).

Structures are written as SMILES.

The IC50 is the point on the concentration scale where inhibition reaches its midpoint. A high value points to weaker potency in that assay.

T1 sequence (P39900 106-470): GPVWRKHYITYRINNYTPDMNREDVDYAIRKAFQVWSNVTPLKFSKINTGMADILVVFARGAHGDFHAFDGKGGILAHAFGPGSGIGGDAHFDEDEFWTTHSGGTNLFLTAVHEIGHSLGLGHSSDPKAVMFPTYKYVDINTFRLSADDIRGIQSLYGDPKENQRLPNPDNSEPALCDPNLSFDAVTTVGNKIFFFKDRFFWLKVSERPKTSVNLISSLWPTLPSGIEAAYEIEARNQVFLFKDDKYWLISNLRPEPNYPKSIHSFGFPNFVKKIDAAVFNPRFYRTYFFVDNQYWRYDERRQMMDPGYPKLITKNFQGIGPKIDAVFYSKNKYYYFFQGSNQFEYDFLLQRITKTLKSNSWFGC
T3 sequence (P22894 101-467): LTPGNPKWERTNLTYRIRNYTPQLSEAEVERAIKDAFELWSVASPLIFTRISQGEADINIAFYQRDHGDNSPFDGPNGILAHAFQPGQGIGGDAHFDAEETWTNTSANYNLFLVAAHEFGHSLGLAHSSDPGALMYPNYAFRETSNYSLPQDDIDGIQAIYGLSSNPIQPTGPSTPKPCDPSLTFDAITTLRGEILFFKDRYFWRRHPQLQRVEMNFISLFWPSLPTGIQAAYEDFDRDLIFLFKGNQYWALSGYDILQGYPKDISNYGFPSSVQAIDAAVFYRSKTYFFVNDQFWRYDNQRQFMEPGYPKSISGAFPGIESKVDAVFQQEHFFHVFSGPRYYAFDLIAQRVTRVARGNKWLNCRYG

Consider `O=C(CC(CCn1nnc2ccccc2c1=O)C(=O)O)c1coc2cc(OCCC3CCCC3)ccc12` (racemic) [Example 75, (+/−)-4-[6-(2-Cyclopentylethoxy)-1-benzofur-3-yl]-4-oxo-2-[2-(4-oxo-1,2,3-benzotriazin-3(4H)-yl)ethyl]butanoic acid], for which the values for the half-maximal inhibitory concentration (IC50) (in assay [1]; against MMP-14; against MMP-8) were 0.22 nM, 6500 nM and 3300 nM, respectively.

Take `O=C(CC(CCn1nnc2ccccc2c1=O)C(=O)O)c1cc2cc(OCc3ccc(F)cc3)ccc2o1` (single isomer, unassigned; (+)) [Example 23, (+)-4-{5-[(4-Fluorobenzyl)oxy]-1-benzofur-2-yl}-4-oxo-2-[2-(4-oxo-1,2,3-benzotriazin-3(4H)-yl)ethyl]butanoic acid]: the 50% inhibitory concentration (IC50) in assay [1] came out at 0.81 nM; at MMP-14, 15000 nM; at MMP-8 it was 6300 nM.

On to `O=C(CC(CCn1nnc2ccccc2c1=O)C(=O)O)c1cc2cc(OCCc3ccccc3)ccc2o1` (single isomer, unassigned; (+)) [Example 21, (+)-4-Oxo-2-[2-(4-oxo-1,2,3-benzotriazin-3(4H)-yl)ethyl]-4-[5-(2-phenylethoxy)-1-benzofur-2-yl]butanoic acid], for which the IC50 worked out at 2.2 nM in assay [1], 30000 nM against MMP-14 and 14000 nM at MMP-8.

Turning to `O=C(CC(CCn1nnc2ccccc2c1=O)C(=O)O)c1cc2cc(OCc3ccc(C(F)(F)F)cc3)ccc2o1` (racemic) [Example 44, (+/−)-4-Oxo-2-[2-(4-oxo-1,2,3-benzotriazin-3(4H)-yl)ethyl]-4-(5-{[4-(trifluoromethyl)benzyl]oxy}-1-benzofur-2-yl)butanoic acid], the IC50 in assay [1] was 0.62 nM; on MMP-14, 13000 nM; against MMP-8 it was 28000 nM.

With `O=C(CC(CCn1nnc2ccccc2c1=O)C(=O)O)c1cc2cc(OCCC3CCOCC3)ccc2o1` (racemic) [Example 6, (+/−)-4-Oxo-2-[2-(4-oxo-1,2,3-benzotriazin-3(4H)-yl)ethyl]-4-{5-[2-(tetrahydro-2H-pyran-4-yl)ethoxy]-1-benzofur-2-yl}butanoic acid], the IC50 in assay [1] worked out at 4 nM; against MMP-14, 37000 nM; on MMP-8 it was 3900 nM.

On to `O=C(CC(CCn1nnc2ccccc2c1=O)C(=O)O)c1cc2cc(OCCC3CCCC3)ccc2o1` (racemic) [Example 7, (+/−)-4-[5-(2-Cyclopentylethoxy)-1-benzofur-2-yl]-4-oxo-2-[2-(4-oxo-1,2,3-benzotriazin-3(4H)-yl)ethyl]butanoic acid], for which the IC50 in assay [1] is 2.8 nM; against MMP-14, over 40000 nM; on MMP-8, 22000 nM.

Turning to `CCCCCCOc1ccc2c(C(=O)CC(CCn3nnc4ccccc4c3=O)C(=O)O)coc2c1` (single isomer, unassigned; (+)) [Example 100, (+)-4-[6-(Hexyloxy)-1-benzofur-3-yl]-4-oxo-2-[2-(4-oxo-1,2,3-benzotriazin-3(4H)-yl)ethyl]butanoic acid], the IC50 worked out at 0.18 nM in assay [1], 4000 nM at MMP-14 and 2800 nM against MMP-8.

In the case of `O=C(CC(CCn1nnc2ccccc2c1=O)C(=O)O)c1cc2cc(OCCCC(F)(F)F)ccc2o1` (single isomer, unassigned; enantiomer 2) [Example 13, (+)-4-Oxo-2-[2-(4-oxo-1,2,3-benzotriazin-3(4H)-yl)ethyl]-4-[5-(4,4,4-trifluorobutoxy)-1-benzofur-2-yl]butanoic acid (enantiomer 2)], the results for the IC50 (in assay [1]; at MMP-14; against MMP-8) were 6.1 nM, 17000 nM and 5000 nM, respectively.

Take `O=C(CC(CCn1nnc2ccccc2c1=O)C(=O)O)c1coc2cc(OCC3CCCCC3)ccc12` (single isomer, unassigned; (+)) [Example 82, (+)-4-[6-(Cyclohexylmethoxy)-1-benzofur-3-yl]-4-oxo-2-[2-(4-oxo-1,2,3-benzotriazin-3(4H)-yl)ethyl]butanoic acid]: the IC50 turned out to be 0.089 nM in assay [1], 2500 nM at MMP-14 and 580 nM at MMP-8.

With `O=C(CC(CCn1nnc2ccccc2c1=O)C(=O)O)c1noc2cc(OCC3CC3)ccc12` (racemic) [Example 150, (+/−)-4-[6-(Cyclopropylmethoxy)-1,2-benzoxazol-3-yl]-4-oxo-2-[2-(4-oxo-1,2,3-benzotriazin-3(4H)-yl)ethyl]butanoic acid], the IC50 was 3.8 nM in assay [1], 900 nM on MMP-14 and 400 nM at MMP-8.

For `O=C(CC(CCn1nnc2ccccc2c1=O)C(=O)O)c1cc2ccc(OCCc3ccccc3)cc2s1` (racemic) [Example 114, (+/−)-4-Oxo-2-[2-(4-oxo-1,2,3-benzotriazin-3(4H)-yl)ethyl]-4-[6-(2-phenylethoxy)-1-benzothiophen-2-yl]butanoic acid], the concentration for half-maximal inhibition (IC50) amounted to 0.3 nM in assay [1], 2100 nM against MMP-14 and 3200 nM at MMP-8.

`O=C(CC(CCn1nnc2ccccc2c1=O)C(=O)O)c1cc2cc(OCCc3ccc(Cl)cc3)ccc2o1` (racemic) [Example 2, (+/−)-4-{5-[2-(4-Chlorophenyl)ethoxy]-1-benzofur-2-yl}-4-oxo-2-[2-(4-oxo-1,2,3-benzotriazin-3(4H)-yl)ethyl]butanoic acid]: the values for the IC50 (in assay [1]; against MMP-14; against MMP-8) were 2.6 nM, over 40000 nM and 14000 nM, respectively.

As to `O=C(CC(CCn1nnc2ccccc2c1=O)C(=O)O)c1coc2cc(OCC3CCCC3)ccc12` (single isomer, unassigned; (+)) [Example 80, (+)-4-[6-(Cyclopentylmethoxy)-1-benzofur-3-yl]-4-oxo-2-[2-(4-oxo-1,2,3-benzotriazin-3(4H)-yl)ethyl]butanoic acid], the IC50 in assay [1] amounted to 0.46 nM; against MMP-14, 1900 nM; against MMP-8, 440 nM.

As for `O=C(O)[C@H]1[C@H](Cn2nnc3ccc(C(F)(F)F)cc3c2=O)CC[C@@H]1C(=O)c1cc2cc(OCCc3ccccc3)ccc2o1` (racemic) [Example 157, (+/−)-(1RS,2SR,5RS)-2-{[4-Oxo-6-(trifluoromethyl)-1,2,3-benzotriazin-3(4H)-yl]methyl}-5-{[5-(2-phenylethoxy)-1-benzofur-2-yl]carbonyl}cyclopentanecarboxylic acid (racemate)], the results for the 50% inhibitory concentration (IC50) (in assay [1]; against MMP-14; on MMP-8) were 0.055 nM, 700 nM and 150 nM, respectively.

Turning to `O=C(CC(CCn1nnc2ccccc2c1=O)C(=O)O)c1noc2cc(OCC3CCCCC3)ccc12` (racemic) [Example 153, (+/−)-4-[6-(Cyclohexylmethoxy)-1,2-benzoxazol-3-yl]-4-oxo-2-[2-(4-oxo-1,2,3-benzotriazin-3(4H)-yl)ethyl]butanoic acid], the IC50 in assay [1] is 1.3 nM; at MMP-14, 5500 nM; on MMP-8, 1700 nM.

(Values after patent US20170121315A1, “HETEROBICYCLICALLY SUBSTITUTED 4-OXOBUTANE ACID DERIVATIVES AND USE THEREOF” (priority 2014, published 2017).)
